Results reported in article PMC12004451, “Characterization of the Two-Domain Peptide Binding Mechanism of the Human CGRP Receptor for CGRP and the Ultrahigh Affinity ssCGRP Variant” (Biochemistry, 2025).
Ends that are not written are not given here.

Columns and labels:
[1] = cited from earlier work
Excerpt: Our analysis of the ssCGRP agonist and its truncated antagonist forms advance our understanding of their potential as long-acting therapeutics. It is widely accepted that long residence time is a desirable property of drugs.[61],[62] This is particularly true for antagonists, but there can also be value in long residence time GPCR agonists.[63],[64] […] The ssCGRP(8-37) antagonist has a CGRPR residence-time longer than the plasma half-life and the ssCGRP agonist can signal for longer than t ...

[2] = test system: CGRPR (CLR:RAMP1) in COS-7 cells; test: CAMYEL cAMP biosensor competition assay with N-terminal TMD-binding agonist AM(13-36); format: cell-based, human; conditions: 30 μM, end point cAMP biosensor assay
Protocol: COS-7 cells were seeded in a 96-well white plate (Corning; Costar 3917) with a density of 20,000 cell/well, 100 μL/well, and incubated at 37 °C and 5% CO2 for 24 h. Cells were transiently transfected with 250 ng DNA total with 25 ng CLR, 25 ng RAMP, 125 ng CAMYEL biosensor, 75 ng empty pcDNA3.1(+) vector, and 375 ng branched PEI per well. Transfected cells were incubated at 37 °C and 5% CO2. […] The preincubation was followed by addition of coelenterazine h (10 μM) and simultaneous addition of 30 μM AM(13-36) agonist and antagonist as indicated, and incubated for 1 h at room temperature in total volume of 50 μL. Emissions at 475 and 535 nm were read in a PHERAstar FS plate reader (BMG Labtech, Ortenberg, Germany). The buffer control (no ligand) was subtracted from each data set and plotted with the corresponding 475/535 BRET ratio in GraphPad Prism.

[3] = test system: calcitonin receptor (CTR) ECD; conditions: cited from earlier work
Excerpt: Similar to ssCGRP, the C-terminal segment of sCT has increased affinity for the receptor ECD, bein ...

Question: With `CC(C)C[C@H](NC(=O)CNC(=O)[C@H](C)NC(=O)[C@H](CC(C)C)NC(=O)[C@H](CCCNC(=N)N)NC(=O)[C@H](Cc1cnc[nH]1)NC(=O)[C@@H](NC(=O)[C@@H](NC(=O)[C@@H]1CSSC[C@H](NC(=O)[C@H](C)N)C(=O)N[C@@H](CC(=O)O)C(=O)N[C@@H]([C@@H](C)O)C(=O)N[C@@H](C)C(=O)N[C@@H]([C@@H](C)O)C(=O)N1)C(C)C)[C@@H](C)O)C(=O)N[C@@H](CC(C)C)C(=O)N[C@@H](CO)C(=O)N[C@@H](CCCNC(=N)N)C(=O)N[C@@H](CO)C(=O)NCC(=O)NCC(=O)N[C@H](C(=O)N[C@H](C(=O)N[C@@H](CCCCN)C(=O)N[C@@H](CC(N)=O)C(=O)N[C@@H](CC(N)=O)C(=O)N[C@@H](Cc1ccccc1)C(=O)N[C@H](C(=O)N1CCC[C@H]1C(=O)N[C@H](C(=O)N[C@@H](CC(N)=O)C(=O)N[C@H](C(=O)NCC(=O)N[C@@H](CO)C(=O)N[C@@H](CCCCN)C(=O)N[C@@H](C)C(=O)N[C@@H](Cc1ccccc1)C(N)=O)C(C)C)[C@@H](C)O)C(C)C)C(C)C)C(C)C` [CGRP(1-37), αCGRP(1-37)] as the compound, how does the plasma half-life [1] read?
Answer: The plasma half-life was ~20 min.

Question: For “AM(13-36): C-terminally truncated adrenomedullin agonist comprising the TMD-binding portion (SFGCRFGTCTVQKLAHQIYQFTDK; ends and bridges not checked; cysteine pairing not given here; UniProt P35318 107-130, looked up, fragment)”, which “agonism of the CGRPR (cAMP)” value [2] is on record?
Answer: The value was “agonism”.

Question: For Salmon calcitonin [sCT], which “higher affinity of C-terminal segment for receptor ECD than hCT” value [3] is on record?
Answer: Its value is ~50 fold.
